In ChEMBL document CHEMBL1201862, “PubChem BioAssay data set” (2004):
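Grown in 96-well plates, cells were treated for 48 hours with each compound at five concentrations. Insufficient inhibition: endpoint recorded as highest concentration tested. At the GI50, growth is halved.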 Activity calls are given as the source filed them. Cut-off read from the data, not from the text of the source: active = GI50 up to about 1.1 µM and inactive = higher.

Experiments:
Assay in all cases: NCI tumour cell line growth inhibition, 48 h
SK-MEL-5 = system: SK-MEL-5
SF-295 = system: SF-295
M14 = system: M14
MCF7 = system: MCF7
OVCAR-5 = system: OVCAR-5
NCI-H460 = system: NCI-H460
UACC-257 = system: UACC-257
SF-268 = system: SF-268
HCC 2998 = system: HCC 2998
ACHN = system: ACHN
CCRF-CEM = system: CCRF-CEM
786-0 = system: 786-0
RXF 393 = system: RXF 393
OVCAR-4 = system: OVCAR-4
HT-29 = system: HT-29
HL-60 = system: HL-60
OVCAR-8 = system: OVCAR-8
UO-31 = system: UO-31
SK-MEL-28 = system: SK-MEL-28
EKVX = system: EKVX
DU-145 = system: DU-145
HOP-92 = system: HOP-92
SF-539 = system: SF-539
SW-620 = system: SW-620
T47D = system: T47D
SN12C = system: SN12C
KM12 = system: KM12
U-251 = system: U-251
PC-3 = system: PC-3
SNB-19 = system: SNB-19
A498 = system: A498
HCT-15 = system: HCT-15
UACC-62 = system: UACC-62
CAKI-1 = system: CAKI-1
HCT-116 = system: HCT-116
IGROV-1 = system: IGROV-1
A549 = system: A549
NCI-H522 = system: NCI-H522
MOLT-4 = system: MOLT-4
SR = system: SR
Malme-3M = system: Malme-3M
NCI/ADR-RES = system: NCI/ADR-RES
MDA-MB-435 = system: MDA-MB-435
Hs-578T = system: Hs-578T
COLO 205 = system: COLO 205
SK-OV-3 = system: SK-OV-3
NCI-H23 = system: NCI-H23
OVCAR-3 = system: OVCAR-3
SNB-75 = system: SNB-75
HOP-62 = system: HOP-62
K562 = system: K562
TK-10 = system: TK-10
MDA-MB-231 = system: MDA-MB-231
RPMI-8226 = system: RPMI-8226
MDA-N = system: MDA-N
SK-MEL-2 = system: SK-MEL-2
LOX IMVI = system: LOX IMVI
NCI-H226 = system: NCI-H226

SMILES: c1ccc2c(Cc3nnc4sc(SSc5nn6c(Cc7c[nH]c8ccccc78)nnc6s5)nn34)c[nH]c2c1
- GI50 (SK-MEL-5): 11.2 µM (inactive)
- GI50 (SF-295): 19.5 µM (inactive)
- GI50 (M14): 18.5 µM (inactive)
- GI50 (MCF7): 15.1 µM (inactive)
- GI50 (OVCAR-5): 26.2 µM (inactive)
- GI50 (NCI-H460): 30.4 µM (inactive)
- GI50 (UACC-257): 33 µM (inactive)
- GI50 (SF-268): 21.8 µM (inactive)
- GI50 (HCC 2998): 16.7 µM (inactive)
- GI50 (ACHN): 26.4 µM (inactive)
- GI50 (CCRF-CEM): 32.6 µM (inactive)
- GI50 (786-0): 20.8 µM (inactive)
- GI50 (RXF 393): 18.8 µM (inactive)
- GI50 (OVCAR-4): 58.1 µM (inactive)
- GI50 (HT-29): 22.5 µM (inactive)
- GI50 (HL-60): 24.2 µM (inactive)
- GI50 (OVCAR-8): 26.4 µM (inactive)
- GI50 (UO-31): 14.5 µM (inactive)
- GI50 (SK-MEL-28): 33.5 µM (inactive)
- GI50 (EKVX): 23 µM (inactive)
- GI50 (DU-145): 26.3 µM (inactive)
- GI50 (HOP-92): 31 µM (inactive)
- GI50 (SF-539): 23.1 µM (inactive)
- GI50 (SW-620): 16.7 µM (inactive)
- GI50 (T47D): 23.2 µM (inactive)
- GI50 (SN12C): 18.7 µM (inactive)
- GI50 (KM12): 22.9 µM (inactive)
- GI50 (U-251): 21.7 µM (inactive)
- GI50 (PC-3): 19.3 µM (inactive)
- GI50 (SNB-19): 31 µM (inactive)
- GI50 (A498): 11.3 µM (inactive)
- GI50 (HCT-15): 21.3 µM
- GI50 (UACC-62): 16 µM (inactive)
- GI50 (CAKI-1): 18.7 µM (inactive)
- GI50 (HCT-116): 16 µM (inactive)
- GI50 (IGROV-1): 2.99 µM (inactive)
- GI50 (A549): 28.8 µM (inactive)
- GI50 (NCI-H522): 17.9 µM (inactive)
- GI50 (MOLT-4): 8.93 µM (inactive)
- GI50 (SR): 18.1 µM (inactive)
- GI50 (Malme-3M): 31.3 µM (inactive)
- GI50 (NCI/ADR-RES): 20.3 µM (inactive)
- GI50 (MDA-MB-435): 19 µM (inactive)
- GI50 (Hs-578T): 23.8 µM (inactive)
- GI50 (COLO 205): 21.1 µM (inactive)
- GI50 (SK-OV-3): 39.9 µM (inactive)
- GI50 (NCI-H23): 19.1 µM (inactive)
- GI50 (OVCAR-3): 11.8 µM (inactive)
- GI50 (SNB-75): 48.2 µM (inactive)
- GI50 (HOP-62): 16.2 µM (inactive)
- GI50 (K562): 17.4 µM (inactive)
- GI50 (TK-10): 38.7 µM (inactive)

SMILES: C[C@]12C(=O)C=CCC1=CC[C@@H]1[C@@H]2[C@H]2CC3(O)C(=O)O[C@@]4(C)[C@H]5C[C@@]6(C)[C@@H]7[C@@]2(O)[C@]1(OC[C@H]6C(=O)O5)O[C@]734 (some centres not stated)
- GI50 (SK-MEL-5): 50 µM (inactive)
- GI50 (SF-295): 57.4 µM (inactive)
- GI50 (M14): 28.8 µM (inactive)
- GI50 (MCF7): 31.7 µM (inactive)
- GI50 (OVCAR-5): 29 µM (inactive)
- GI50 (NCI-H460): 35.8 µM (inactive)
- GI50 (UACC-257): 59.4 µM (inactive)
- GI50 (SF-268): 37.1 µM (inactive)
- GI50 (ACHN): 61.9 µM (inactive)
- GI50 (CCRF-CEM): 20.8 µM (inactive)
- GI50 (786-0): 34.5 µM (inactive)
- GI50 (RXF 393): 20.2 µM (inactive)
- GI50 (OVCAR-4): 54.3 µM (inactive)
- GI50 (HT-29): 40.1 µM (inactive)
- GI50 (HL-60): 17.5 µM (inactive)
- GI50 (OVCAR-8): 28.4 µM (inactive)
- GI50 (UO-31): > 100 µM (inactive)
- GI50 (SK-MEL-28): 28.4 µM (inactive)
- GI50 (EKVX): 43.9 µM (inactive)
- GI50 (DU-145): 58.2 µM (inactive)
- GI50 (HOP-92): 68.4 µM (inactive)
- GI50 (SF-539): 17.7 µM (inactive)
- GI50 (SW-620): 35.2 µM (inactive)
- GI50 (SN12C): 30.1 µM (inactive)
- GI50 (KM12): 30.5 µM (inactive)
- GI50 (U-251): 34.6 µM (inactive)
- GI50 (PC-3): 41.9 µM (inactive)
- GI50 (MDA-MB-231): 43.7 µM (inactive)
- GI50 (SNB-19): 62.4 µM (inactive)
- GI50 (A498): 54.6 µM (inactive)
- GI50 (HCT-15): 53.7 µM
- GI50 (UACC-62): 26.4 µM (inactive)
- GI50 (CAKI-1): 40.7 µM (inactive)
- GI50 (HCT-116): 31.8 µM (inactive)
- GI50 (IGROV-1): 40.1 µM (inactive)
- GI50 (A549): > 100 µM (inactive)
- GI50 (NCI-H522): 14.3 µM (inactive)
- GI50 (RPMI-8226): 34.8 µM (inactive)
- GI50 (MDA-N): 37.9 µM (inactive)
- GI50 (MOLT-4): 23.2 µM (inactive)
- GI50 (SR): 28.4 µM (inactive)
- GI50 (Malme-3M): 74.8 µM (inactive)
- GI50 (NCI/ADR-RES): > 100 µM (inactive)
- GI50 (MDA-MB-435): 36.6 µM (inactive)
- GI50 (Hs-578T): 51.1 µM (inactive)
- GI50 (COLO 205): 39.6 µM (inactive)
- GI50 (NCI-H23): 24.2 µM (inactive)
- GI50 (SNB-75): 54.7 µM (inactive)
- GI50 (SK-MEL-2): 23 µM (inactive)
- GI50 (K562): 38.2 µM (inactive)
- GI50 (LOX IMVI): 27.4 µM (inactive)
- GI50 (TK-10): 93.8 µM (inactive)

SMILES: COC(C)(C)[C@@H](O)[C@H](O)C[C@H](C)C1=C2CC[C@@H]3[C@@]4(C)CC[C@@H](OC(C)=O)C(C)(C)[C@@H]4C[C@@H](OC4OC(COC(C)=O)C(O)C(O)C4O)[C@@]3(C)[C@]2(C)CC1 (some centres not stated)
- GI50 (U-251): 10.7 µM (inactive)
- GI50 (SK-OV-3): 15.3 µM (inactive)
- GI50 (SNB-75): 8.79 µM (inactive)

SMILES: CCc1cc2c(cc1O)CC[C@@H]1[C@@H]2CC[C@]2(C)[C@@H](O)CC[C@@H]12
- GI50 (SK-MEL-5): 7.11 µM (inactive)
- GI50 (SF-295): 3.91 µM (inactive)
- GI50 (M14): 6.49 µM (inactive)
- GI50 (MCF7): 3.63 µM (inactive)
- GI50 (OVCAR-5): 20.3 µM (inactive)
- GI50 (NCI-H460): 5.42 µM (inactive)
- GI50 (UACC-257): 8.02 µM (inactive)
- GI50 (SF-268): 6.41 µM (inactive)
- GI50 (HCC 2998): 10.2 µM (inactive)
- GI50 (ACHN): 8.81 µM (inactive)
- GI50 (CCRF-CEM): 5.6 µM (inactive)
- GI50 (786-0): 5.21 µM (inactive)
- GI50 (RXF 393): 3.76 µM (inactive)
- GI50 (OVCAR-4): 12.3 µM (inactive)
- GI50 (HT-29): 15 µM (inactive)
- GI50 (HL-60): 3.02 µM (inactive)
- GI50 (OVCAR-8): 7.24 µM (inactive)
- GI50 (UO-31): 9.08 µM (inactive)
- GI50 (SK-MEL-28): 5.14 µM (inactive)
- GI50 (EKVX): 9.71 µM (inactive)
- GI50 (SW-620): 4.16 µM (inactive)
- GI50 (T47D): 7.48 µM (inactive)
- GI50 (KM12): 6.19 µM (inactive)
- GI50 (U-251): 4.76 µM (inactive)
- GI50 (PC-3): 12.2 µM (inactive)
- GI50 (MDA-MB-231): 7.93 µM (inactive)
- GI50 (SNB-19): 6.34 µM (inactive)
- GI50 (A498): 18.7 µM (inactive)
- GI50 (HCT-15): 4.83 µM
- GI50 (UACC-62): > 10 µM (inactive)
- GI50 (CAKI-1): 4.67 µM (inactive)
- GI50 (IGROV-1): 11.2 µM (inactive)
- GI50 (A549): 8.05 µM (inactive)
- GI50 (NCI-H522): 8.81 µM (inactive)
- GI50 (MDA-N): 2.07 µM (inactive)
- GI50 (MOLT-4): 5 µM (inactive)
- GI50 (SR): 3.08 µM (inactive)
- GI50 (Malme-3M): 2.97 µM (inactive)
- GI50 (NCI/ADR-RES): 3.66 µM (inactive)
- GI50 (MDA-MB-435): 1.73 µM (inactive)
- GI50 (COLO 205): 17.5 µM (inactive)
- GI50 (SK-OV-3): 11.7 µM (inactive)
- GI50 (NCI-H23): 7.14 µM (inactive)
- GI50 (SNB-75): 1.9 µM (inactive)
- GI50 (NCI-H226): 12.2 µM (inactive)
- GI50 (HOP-62): 6.14 µM (inactive)
- GI50 (SK-MEL-2): 9.82 µM (inactive)
- GI50 (K562): 3.88 µM (inactive)
- GI50 (LOX IMVI): 9.75 µM (inactive)
- GI50 (TK-10): 21.9 µM (inactive)
